Read-outs that look alike come from different tables or passages of the source.

The text below walks through data of patent EP1147080B1 (Wyeth Holdings Corporation, priority 1999, dated 2000).

The target of test [1] is TNF-α converting enzyme (TACE) (Homo sapiens, UniProt P78536). Kind of test: Test procedure for measuring TACE inhibition (fluorescent peptidyl substrate). It is filed as biochemical. Conditions: for inhibition at 10 µM: % @ 10µM per footnote a, read-out: TACE IC50.
The test system of a further test is THP-1 cells. In words: Human monocytic THP-1 cell differentiation assay for soluble proteins (THP soluble protein assay), LPS-stimulated, TNF-α ELISA. It is filed as cell-based. Conditions: for inhibition at 3 µM: Homo sapiens, THP-1; at 3 uM; percent change from vehicle positive control; read-out: TNFalpha at 3 uM) THP (percent change); for THP (% inhibition): Table 1, concentration not given. From the text: Mitogenic stimulation of THP-1 cells cause differentiation into macrophage like cells with concomitant secretion of tumor necrosis factor (TNF-a) and TNF receptor (TNF-R p75/80 and TNF-R p55/60) and Interleukin-8 (IL-8), among other proteins. In addition, non-stimulated THP-1 cells shed both the p75/80 and the p55/60 receptors over time. The release of membrane bound TNF-a and possibly TNF-R p75/80 and TNF-R p55/60, but not IL-8, is mediated by an enzyme called TNF-α converting enzyme or TACE.
THP-1 cells (from ATCC) are a human monocytic cell line which were obtained from the peripheral blood of a person with acute monocytic leukemia. They can be grown in culture and differentiated into macrophage like cells by stimulation with mitogens.
Each vial of cells are cultured for about two weeks prior to being used for an assay and then are used for only 4 to 6 weeks to screen compounds.
Cell exposure to DMSO was limited to 0.1 % final concentration. […] Compounds can be evaluated for their effect on basal (non-stimulated) shedding of the receptors by replacing the LPS with […] of THP-1 media. Plates are placed into an incubator set at 5% CO2 and at 37°C. After 4 hours of incubation, […] of tissue culture supernatant (TCS) is removed for use in an TNF-α ELISA. Following 24 hours of incubation, […] of TCS is removed and used for analysis in TNF-R p75/80, TNF-R p55/60 and IL-8 ELISAs.
In addition, at the 24 hours timepoint, and the cells for each treatment group are collected by resuspension in 500 µl/well of THP-1 media and transferred into a FACS tube. […] The samples are run on a Becton Dickinson FaxCaliber FLOW cytometry machine and the amount of dye taken up by each cell is measured in the high red wavelength (FL3). Only cells with compromised membranes (dead or dying) can take up PI. The percent of live cells is calculated by the number of cells not stained with PI, divided by the total number of cells in the sample. The viability values calculated for the drug treated groups were compared to the viability value calculated for the vehicle treated mitogen stimulated group ("vehicle positive control") to determine the "percent change from control". This "percent change from control" value is an indicator of drug toxicity.
The quantity of soluble TNF-α, TNF-R p75/80 and TNF-R p55/60 and IL-8 in the TCS of the THP-1 cell cultures are obtained with commercially available ELISAs from R&D Systems, by extrapolation from a standard curve generated with kit standards. The number of cells that either take up or exclude PI are measured by the FLOW cytometry machine and visualized by histograms using commercially available Cytologic software for each treatment group including all controls.
Biological variability in the magnitude of the response of THP-1 cell cultures requires that experiments be compared on the basis of percent change from "vehicle positive control" for each drug concentration. Percent change in each soluble protein evaluated from the "vehicle positive control" was calculated for each compound concentration with the following formula: % Change =(pg/ml (compound) - pg/ml (veh pos control))/(pg/ml (veh pos control) - pg/ml (veh neg control))x 100 [formula]
For the soluble protein (TNF-a, p75/80, p55/60, IL-8) studies under stimulated conditions, the mean pg/ml of duplicate wells were determined and the results expressed as percent change from "vehicle positive control". For the soluble protein (p75/80 and p55/60 receptors) studies under non-stimulated conditions, the mean pg/ml of duplicate wells were determined and the results expressed as percent change from […] utilizing the following formula: % Change =(pg/ml (compound neg control) - pg/ml (veh neg control))/(pg/ml (veh neg control))X 100 [formula]
IC50 values for each compound are calculated by non-linear regression analysis using customized software utilizing the JUMP statistical package.
Background: ELISA stands for enzyme-linked immunosorbent assay.

A further test addresses T1, MMP-1 (Homo sapiens, UniProt P03956).
T1 sequence (P03956 100-469): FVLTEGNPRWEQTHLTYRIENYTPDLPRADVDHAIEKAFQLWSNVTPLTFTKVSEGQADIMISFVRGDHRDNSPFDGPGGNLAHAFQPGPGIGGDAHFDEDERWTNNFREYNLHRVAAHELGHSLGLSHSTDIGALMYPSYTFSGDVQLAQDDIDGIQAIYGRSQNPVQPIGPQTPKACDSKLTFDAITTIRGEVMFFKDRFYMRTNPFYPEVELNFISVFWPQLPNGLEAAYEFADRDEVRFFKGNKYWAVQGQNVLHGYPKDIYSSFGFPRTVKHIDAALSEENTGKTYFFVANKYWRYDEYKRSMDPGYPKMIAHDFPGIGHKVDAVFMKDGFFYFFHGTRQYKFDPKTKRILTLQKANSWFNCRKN
In words: MMP-1 inhibition (thiopeptide or fluorescent peptide substrate). Conditions: for inhibition at 10 µM: read-out: MMP1.

The next test has as its target MMP-13 (Homo sapiens, UniProt P45452). In words: MMP-13 inhibition (thiopeptide or fluorescent peptide substrate). The test is classed as biochemical. Conditions: read-out: MMP13; for inhibition at 10 µM: % @ 10µM per footnote a; for inhibition at 1 µM: % at 1 um (specified in cell). From the text: Alternatively, a fluorescent peptide substrate is used.
Where [2] appears, read: second table, IC50 (nM) per footnote a.

Sequence of TNF-α converting enzyme (TACE) (P78536 215-824): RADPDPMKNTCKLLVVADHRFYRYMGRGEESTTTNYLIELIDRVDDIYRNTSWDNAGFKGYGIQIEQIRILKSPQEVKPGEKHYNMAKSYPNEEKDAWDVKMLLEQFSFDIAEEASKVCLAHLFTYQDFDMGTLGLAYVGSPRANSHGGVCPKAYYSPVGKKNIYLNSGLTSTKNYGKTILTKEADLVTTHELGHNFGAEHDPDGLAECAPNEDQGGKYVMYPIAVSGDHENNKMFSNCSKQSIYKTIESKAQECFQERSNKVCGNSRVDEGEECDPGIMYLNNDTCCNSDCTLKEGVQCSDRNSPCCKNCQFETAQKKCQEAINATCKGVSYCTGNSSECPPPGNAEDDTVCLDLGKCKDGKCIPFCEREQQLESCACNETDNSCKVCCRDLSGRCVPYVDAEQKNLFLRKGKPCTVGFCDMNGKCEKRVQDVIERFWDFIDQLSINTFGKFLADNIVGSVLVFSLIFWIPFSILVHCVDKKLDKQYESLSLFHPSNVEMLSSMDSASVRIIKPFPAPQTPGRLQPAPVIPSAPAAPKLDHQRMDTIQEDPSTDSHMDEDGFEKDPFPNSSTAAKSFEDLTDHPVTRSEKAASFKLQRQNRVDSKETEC

Turning to `CC#CCOc1ccc(S(=O)(=O)C(C(=O)NO)c2cccc3ccccc23)cc1` (centres unmarked) [Example 94, 2-{[4-(2-Butynyloxy)phenyl]sulfonyl}-N-hydroxy-2-(1-naphthyl)acetamide], the IC50 (as a rule, the concentration at which inhibition is half-maximal) in test [1] (setting [2]) was 423 nM. The inhibition at 3 µM in the test on THP-1 cells is -11%. Further, the inhibition at 10 µM worked out at 8% on MMP-1 and 34% at MMP-13.

For `CC#CCOc1ccc([S+]([O-])[C@@H](C(=O)NO)c2ccc(-c3cccs3)cc2)cc1` (stereo partly drawn) [Example 90, (2R)-2-{[4-(2-butynyloxy)phenyl]sulfinyl}-N-hydroxy-2-[4-(2-thienyl)phenyl] ethanamide], the inhibition at 3 µM in the test with THP-1 cells was 1%. Besides, the inhibition at 10 µM on MMP-1 is 7%. In addition, the inhibition at 1 µM at MMP-13 stood at 16%.

Turning to `CC#CCOc1ccc(S(=O)(=O)C(C(=O)NO)C2CCOCC2)cc1` (centres unmarked) [Example 122, 2-{[4-(2-Butynyloxy)phenyl]sulfonyl}-N-hydroxy-2-tetrahydro-2H-pyran-4-yl-acetamide], the inhibition at 3 µM with THP-1 cells is 36%. In addition, the inhibition at 10 µM worked out at 9% at MMP-1 and 57% on MMP-13.

`CC#CCOc1ccc(S(=O)(=O)C(C(=O)NO)C2CCN(Cc3ccc(OC)cc3)CC2)cc1` (centres unmarked) [Example 119, 2-{[4-(2-butynyloxy)phenyl]sulfonyl}-N-hydroxy-2-[1-(4-methoxybenzyl)-4-piperidinyl] acetamide] displayed an IC50 in test [1] (setting [2]) of 263 nM. The inhibition at 3 µM in the test with THP-1 cells was determined as 30%. Also, the inhibition at 10 µM at MMP-1 amounted to 9%; on MMP-13, 50%.

With `CC#CCOc1ccc([S+]([O-])C(C(=O)NO)c2cccc3ccccc23)cc1` (centres unmarked) [Example 93, 2-{[4-(2-Butynyloxy)phenyl]sulfinyl}-N-hydroxy-2-(1-naphthyl)acetamide], the figures for the inhibition at 10 µM (in test [1]; at MMP-1; on MMP-13) were 15.6%, 7% and 17%, respectively. The inhibition at 3 µM with THP-1 cells was -1%.

Molecule `CC#CCOc1ccc(SC(C(=O)NO)c2cccc(Cl)c2)cc1` (centres unmarked) [Example 83, 2-{[4-(2-butynyloxy)phenyl]sulfanyl}-2-(3-chlorophenyl)-N-hydroxyacetamide] came in with an IC50 in test [1] (setting [2]) of 133 nM. The inhibition at 3 µM in the test with THP-1 cells came out at 0%. Moreover, the results for the inhibition at 10 µM at MMP-1 and at MMP-13 were 9.4% and 36.4%, respectively.

In the case of `CC#CCOc1ccc(S(=O)(=O)C(C(=O)NO)c2cccc(Cl)c2)cc1` (centres unmarked) [Example 84, 2-{[4-(2-butynyloxy)phenyl]sulfonyl}-2-(3-chlorophenyl)-N-hydroxyacetamide], the inhibition at 3 µM with THP-1 cells is -7%. Further, the inhibition at 10 µM on MMP-1 is 10%. The inhibition at 1 µM at MMP-13 was found to be 23%.

Turning to `CC#CCOc1ccc(SC(C(=O)NO)c2cccc3ccccc23)cc1` (centres unmarked) [Example 92, 2-{[4-(2-Butynyloxy)phenyl]sulfanyl}-N-hydroxy-2-(1-naphthyl)acetamide], in test [1] (setting [2]), the half-inhibitory concentration (IC50) worked out at 931 nM. The inhibition at 3 µM in the test with THP-1 cells was -7%. Moreover, the values for the inhibition at 10 µM at MMP-1 and at MMP-13 were 8% and 25%, respectively.

As for `CC#CCOc1ccc([S+]([O-])[C@H](C(=O)NO)c2ccc(Br)cc2)cc1` (single isomer, unassigned) [Example 86], in test [1] (setting [2]), half-maximal inhibition (IC50) was put at 60 nM. Further, the inhibition at 3 µM in the test on THP-1 cells was -2%. In addition, the inhibition at 10 µM at MMP-1 amounted to 24%; at MMP-13, 51%.

As for `CC#CCOc1ccc(SC(C(=O)NO)c2ccc(-c3cccs3)cc2)cc1` (centres unmarked) [Example 89, 2{[4-(2-butynyloxy)phenyl]sulfanyl}-N-hydroxy-2-[4-(2-thienyl)phenyl]acetamide], the IC50 in test [1] (setting [2]) turned out to be 617 nM. The inhibition at 3 µM in the test with THP-1 cells was found to be 2%. Also, the values for the inhibition at 10 µM on MMP-1 and at MMP-13 were 0% and 5%, respectively.

As for `CC#CCOc1ccc(S(=O)(=O)C(C(=O)NO)c2ccc(-c3cccs3)cc2)cc1` (centres unmarked) [Example 91, 2-{[4-(2-butynyloxy)phenyl]sulfonyl}-N-hydroxy-2-[4-(2-thienyl)phenyl]acetamide], the inhibition at 10 µM was 48% in test [1], 10% on MMP-1 and 35% on MMP-13. The inhibition at 3 µM in the test on THP-1 cells came out at 2%.

For `CC#CCOc1ccc(OCCC(=O)NO)cc1` [Example 9, 3-(4-But-2-ynyloxy-phenoxy)-N-hydroxy-propionamide], the IC50 stood at 30 nM in test [1] (Table 1) and 10 µM against MMP-1. The “THP (% inhibition)” value with THP-1 cells was determined as 16%.

Take `CC#CCOc1ccc(S(=O)(=O)C(C(=O)NO)c2ccc(Br)cc2)cc1` (centres unmarked) [Example 88, 2-(4-bromophenyl)-2-{[4-(2-butynyloxy)phenyl]sulfonyl}-N-hydroxyacetamide]: the IC50 in test [1] (setting [2]) worked out at 226 nM. Moreover, in the test with THP-1 cells, the inhibition at 3 µM worked out at 4%. At MMP-1, the inhibition at 10 µM turned out to be 20%. The inhibition at 1 µM on MMP-13 came out at 21%.

In the case of `CC#CCOc1ccc(S(=O)(=O)C(C(=O)NO)c2cccc(Br)c2)cc1` (centres unmarked) [Example 106, 2-{[4-(2-Butynyloxy)phenyl]sulfonyl}-2-(3-bromophenyl)-N-hydroxyacetamide], the IC50 in test [1] (setting [2]) amounted to 65 nM. Also, the inhibition at 3 µM in the test on THP-1 cells is -5%. Besides, the inhibition at 10 µM at MMP-1 was found to be 0%; at MMP-13, 56%.

For the molecule `CC#CCOc1ccc([S+]([O-])[C@H](C(=O)NO)c2cccc(Br)c2)cc1` (single isomer, unassigned) [Example 105], in test [1] (setting [2]), the IC50 came to 106 nM. Besides, in the test on THP-1 cells, the inhibition at 3 µM is -4%. Also, the inhibition at 10 µM was 9% at MMP-1 and 32% on MMP-13.

With `CC#CCOc1ccc(S(=O)(=O)C(CCCCCC)C(=O)NO)cc1` (centres unmarked) [Example 5, 2-(4-But-2-ynyloxy-benzenesulfonyl)-octanoic acid hydroxamide], the “THP (% inhibition)” value in the test with THP-1 cells is 6%. The IC50 on MMP-1 (read-out: MMP1 IC50, Table 1) was 10 µM.

Consider `CC#CCOc1ccc(S(=O)(=O)C(C(=O)NO)C2CCN(C(=O)c3ccccc3)CC2)cc1` (centres unmarked) [Example 120, 2-(1-benzoyl-4-piperidinyl)-2-{[4-(2-butynyloxy)phenyl]sulfonyl}-N-hydroxyacetamide], for which it took 88.5 nM to reach half-maximal inhibition in test [1] (setting [2]) (IC50). For the same molecule, the inhibition at 3 µM in the test with THP-1 cells was determined as 63%. The inhibition at 10 µM at MMP-1 was found to be 24%. For the same molecule, on MMP-13, the inhibition at 1 µM stood at 51%.

The molecule `CC#CCOc1ccc(S(=O)(=O)C(C(=O)NO)C2CCNCC2)cc1` (centres unmarked) [Example 118, 2-{[4-(2-butynyloxy)phenyl]sulfonyl}-N-hydroxy-2-(4-piperidinyl) acetamide] returned an IC50 in test [1] (setting [2]) of 299 nM. Moreover, the inhibition at 3 µM in the test with THP-1 cells came out at 24%. In addition, the values for the inhibition at 10 µM on MMP-1 and at MMP-13 were 23.8% and 69.5%, respectively.

With `CC#CCOc1ccc(SC(C(=O)NO)C2CCCCC2)cc1` (centres unmarked) [Example 73, 2-{[4-(2-butynyloxy)phenyl]sulfanyl}-2-cyclohexyl-N-hydroxyacetamide], the inhibition at 3 µM in the test with THP-1 cells worked out at 0%. Besides, at MMP-1, the inhibition at 10 µM is 4.8%.
